Experimental data from patent US6022307A, “Substituted dibenzothiophenes having antiangiogenic activity” (American Cyanamid Company, priority 1999, dated 2000).
Structures can show the parent of a compound that is named as a salt. Where two headings read alike, the source gives them in different places.

What was measured:
KDR [1] = test system: KDR
Description: (§1) Inhibition of Binding of VEGF 165 to KDR & Flt-1 Receptors as Measured by SPA Assay
(§2) Preparation of conditioned media containing the KDR-Fc soluble VEGF receptor.:
(§3) Human 293KDR2 cells, which secrete a soluble KDR-Fc fusion protein, were grown in Dulbecco's Modified Eagle Medium supplemented with 10% fetal calf serum, 2 mM glutamine, 10 units/ml penicillin G sulfate, 10 μg/ml streptomycin sulfate and 175 μg/ml geneticin (G418) sulfate. Cells were plated at a density of 10^6 cells/100 mm dish and incubated at 37° C. in a humidified atmosphere containing 95% air and 5% CO2. After 10 days, conditioned medium was collected and centrifuged at 15,000 rpm for 15 min to remove dead cells. A total of 0.1 volume of 1.15% gelatin and 0.02 volume of 1M HEPES buffer (pH 8) was added. Leupeptin and pepstatin A were added to 1 μg/ml each.
(§4) Preparation of ^125 I-labelled VEGF ligand:
(§5) Recombinant human ^125 T-labelled VEGF 165 was purchased from Amersham (3,800 cpm/fmol). ^125,-labelled VEGF was diluted in DMEM supplemented with gelatin (0.15%) and HEPES buffer (20 mM) to a final concentration of 40,000 cpm/25 μl.
Preparation of SPA beads:
(§6) SPA PVT antibody-binding beads were purchased from Amersham. Each bottle of SPA beads (500 mg) was reconstituted in 25 ml of DMEM supplemented with gelatin (0.15%) and HEPES buffer (20 mM). The bottle contents were well mixed (15 min with a stir bar at room temperature).
(§7) SPA assays were performed in flat-bottom polystyrene 96 well microtitre plates.
(a) Pipette 50 μl of SPA beads to well.
(§8) (b) Pipette 25 μl of conditioned medium to well.
(§9) (d) Pipette 25 μl of ^125 J-VEGF 165 to well.
(§10) The appropriate control wells were set up to measure non-specific binding, solvent effect, etc. The assays were run in duplicate or triplicate wells. Plates were sealed and incubate at room temperature without shaking for 5 to 20 hours. Plates were then counted in a Packard TopCount microtitre plate liquid scintillation counter.
(§11) A typical assay gave 3,000 to 6,000 cpm bound. Background binding (measured in the presence of 100-fold molar excess of unlabelled VEGF 165) was typically 200 to 300 cpm bound. Compounds were tested at 30, 10, 3, 1, 0.3 and 0.1 μg/ml in DMSO. […] Half maximal binding was determined by the following equation:
(§12) s=maximal cpm bound in the absence of compound.
(§13) The IC50 values were determined graphically by the following procedure:
(§14) A graph was drawn plotting compound concentration (x-axis) versus cpm bound (y-axis).
(§15) The half maximal binding was calculated using the equation above.
(§16) A horizontal line (LINE A) was drawn which intersects the y-axis at the half maximal binding value.
(§17) A vertical line (LINE B) was drawn through the point where LINE A intersects the inhibition curve.
(§18) The point where LINE B intersects the x-axis was extrapolated from the graph to give the IC50 value.

[2] = test system: Human Epidermoid Tumors (A431); type: in vivo, human tumor in BALB/c nu/nu female mice; conditions: 100 mg/kg, PO
[3] = test system: Human Epidermoid Tumors (A431); type: in vivo, human tumor in BALB/c nu/nu female mice
Description: In Vivo Inhibition of Growth of Human Epidermoid Tumors (A431)
In vivo testing was performed using BALB/c nu/nu female mice (Charles River, Wilmington, Mass.). The human epidermoid carcinoma cells A-431 (American Type Culture Collection, Rockville, Md. # CRL-155) were grown in vitro and 5×10^6 cells were injected subcutaneously (SC) into mice. When tumors attained a mass of between 100 and 150 mg, the mice were randomized into treatment groups (Day Zero). Mice were treated either intraperitoneally (IP) or orally (PO) once a day on days 1 through 20 post staging with doses of either 100 or 50 mg/kg/dose in 0.2% Klucel. Tumor mass was determined every 7 days [(length×width^2)/2] for up to 42 days post staging. Relative tumor growth (mean tumor mass on day 7, 14, 21, 28, 35 and 42 divided by the mean tumor mass on day zero) was determined for each treatment group. The %T/C (Tumor/Control) was determined by dividing the relative tumor growth of the treated group by the relative tumor growth of the placebo group and multiplying by 100. Data was statistically analyzed via Student-t-test of Log Relative Tumor Growth. A p-value (p≤0.05) indicates a statistically significant reduction in Relative Tumor Growth of Treated Group, compared to Placebo Control. A compound is considered to be active if the %T/C is found to be <60% and a p-value of less than or equal to 0.05 is achieved.

[4] = test system: corneal neovascularization; assay: Corneal Neovascularization Model; type: in vivo, mice; conditions: 100 mg/kg, PO, days 1-10
Description: Corneal Neovascularization Model
The sustained release preparations of angiogenic agents (ELVAX pellet) were prepared by solvent casting. […] The solvent was then evaporated, leaving the angiogenic agent in the polymeric matrix
Mice were anesthetized using a 1-1.5 ml/kg solution containing a mixture of 70% ketamine hydrochloride (100 mg/ml) and 30% xylazine (20 mg/ml). Using sterile surgical technique, an ELVAX pellet containing either basic FGF (100 ng) or VEGF (400 ng) was implanted into a previously dissected intrastromal corneal pocket 0.5 mm from the corneoscleral limbus. Following implantation the implantation site margins were reapposed and the eyes were treated with topical antibiotic ointment (bacitracin/neomycin/polymixin). On various days (between postoperative days 4 and 18) the extent of neovascularization was measured.
Neovascularization was monitored by measurements of new vessel growth within the previously avascular cornea. This parameter was obtained by measuring with calipers under microscopic magnification the length of the base of the neovascular bed at the limbus. The area of neovascularization,which is typically triangular, was calculated by dividing the product of the length of the vessel and the base length by two. Data was statistically analyzed via Student-t-test of Log Relative Reduction of Neovascularization. A p-value (p≤0.05) indicates a statistically significant reduction in neovascularization of Treated Group, compared to Placebo Control.

[5] = test system: VEGF 165-induced vascular permeability; assay: Inhibition of Vascular Permeability Assay (Miles Assay); type: in vivo, BALB/c female mice; conditions: 100 mg/kg, PO
Description: Inhibition of Vascular Permeability Assay (Miles Assay) This assay was performed using BALB/c female mice (Charles River, Wilmington, Mass.). Both sides of the animals were shaved between 24 and 48 hours before the start of the assay. There were 10 animals per experimental group. […] One half hour later the animals were sacrificed by CO2 inhalation. […] Data was statistically analyzed via Student-t-test. A p-value (p≤0.05) indicates a statistically significant difference between the area of vascular permeability of the vehicle control verses the experimental group. Data was statistically analyzed via Student-t-test of Log Relative Area of Permiability. A p-value (p≤0.05) indicates a statistically significant reduction in permeability of Treated Group, compared to Placebo Control.

KDR [6] = assay: Inhibition of Binding of VEGF 165 to KDR Receptor as Measured by SPA Assay; conditions: read-out: affinity constant for VEGF binding to the soluble KDR-Fc receptor
Target sequence in this assay (P35968 20-327 limits assumed): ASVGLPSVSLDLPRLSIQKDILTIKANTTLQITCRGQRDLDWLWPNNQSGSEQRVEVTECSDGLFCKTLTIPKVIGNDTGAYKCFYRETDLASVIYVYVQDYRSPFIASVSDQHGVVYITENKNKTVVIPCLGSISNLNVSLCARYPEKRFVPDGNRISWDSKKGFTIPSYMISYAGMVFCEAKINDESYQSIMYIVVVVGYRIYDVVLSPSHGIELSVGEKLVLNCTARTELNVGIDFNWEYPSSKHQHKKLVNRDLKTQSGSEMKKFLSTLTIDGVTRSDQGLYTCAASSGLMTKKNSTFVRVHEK
Description: as §1, §2, §3, §4, §5
Preparation of SPA beads:
as §6, §7
(a) Pipette 50 μl of SPA beads to well.
as §8, §9, §10, §11, §12, §13, §14, §15, §16, §17, §18

| Compound | IC50 (KDR [1]) [µg/mL] | % T/C (Day) ([3]; 50 mg/kg, PO, day 28) [%] | % Control ([5]; 4 hr prior to VEGF) [%] | Lesion Area (measured area of vascular permeability) ([5]; 4 hr prior to VEGF) [mm^2] | other results |
| --- | --- | --- | --- | --- | --- |
| O=C(Nc1cc2sc3cc(NC(=O)c4cc5c(s4)-c4cc(Cl)ccc4SC5)c(C(=O)O)cc3c2cc1C(=O)O)c1cc2c(s1)-c1cc(Cl)ccc1SC2 [Example 6, 3,7-Bis[(8-chloro-4H-thieno[3,2-c][1]benzothiopyran-2-carbonyl)-amino]dibenzothio-phene-2,8-dicarboxylic acid, disodium] | 0.5 |  |  |  | % T/C (Day) ([2]; day 15): 52% |
| CCOP(=O)(O)c1cc2c(cc1NC(=O)/C=C/c1ccc(OC)cc1)S(=O)(=O)c1cc(NC(=O)/C=C/c3ccc(OC)cc3)c(P(=O)(O)OCC)cc1-2 [Example 20, [3,7-Bis-[4-methoxyphenyl]-acryloylamino]-8-(ethoxyhydroxy-phosphoryl)-5,5-dioxo-5H-5^6-dibenzothiophen-2-yl]-phosphonic acid monoethyl ester, disodium salt] | 3.9 |  |  |  | S/T (No. Survivors/No. Treated) ([3]; 100 mg/kg, PO, Day +28 post tumor staging): 5/5; Inhibition of Corneal Neovascularization ([4]; Day 4): 29%; Inhibition of Corneal Neovascularization ([4]; Day 8): 25%; Inhibition of Corneal Neovascularization ([4]; Day 11): 30%; Inhibition of Corneal Neovascularization ([4]; Day 13): 26%; % T/C (Day) ([2]; day 29): 39% |
| COc1ccc(/C=C/C(=O)Nc2cc3c(cc2S(=O)(=O)O)-c2cc(S(=O)(=O)O)c(NC(=O)/C=C/c4ccc(OC)c(OC)c4Cl)cc2S3(=O)=O)c(Cl)c1OC [Example 27, 3,7-Bis[3-(2-chloro-3,4-di-methoxyphenyl)-acryloylamino]-5,5-dioxo-5H-5^6-dibenzothiophene-2,8-disulfonic acid, disodium salt] | 2.33 | 51 | 73 | 58.5 | % T/C (Day) ([3]; 100 mg/kg, PO, day 28): 30% |
| COc1ccc(/C=C/C(=O)Nc2cc3c(cc2S(=O)(=O)O)-c2cc(S(=O)(=O)O)c(NC(=O)/C=C/c4ccc(OC)cc4)cc2S3(=O)=O)cc1 [Example 30, 3,7-Bis-[3-(4-methoxyphenyl)-acryloylamino]-5,5-dioxo-5H-5^6-dibenzothiophene-2,8-disulfonic acid, disodium salt] | 0.5 | 58 | 56 | 52.9 | % T/C (Day) ([3]; 100 mg/kg, PO, day 42): 56% |
| CCCc1c(C(=O)Nc2cc3c(cc2S(=O)(=O)O)-c2cc(S(=O)(=O)O)c(NC(=O)c4cnn(-c5ccc(Cl)cc5)c4CCC)cc2S3(=O)=O)cnn1-c1ccc(Cl)cc1 [Example 45, 3,7-Bis-{[1-(4-chlorophenyl)-5-propyl-1H-pyrazole-4-carbonyl]amino}5,5-dioxo-5H-5^6-dibenzothiophene-2,8-disulfonic acid, disodium salt] | 2 |  |  |  | % T/C (Day) ([3]; 50 mg/kg, IP, day 28): 50% |
| O=C(Nc1cc2c(cc1S(=O)(=O)O)-c1cc(S(=O)(=O)O)c(NC(=O)c3ccc4cc5ccccc5cc4c3)cc1S2(=O)=O)c1ccc2cc3ccccc3cc2c1 [Example 54, 3,7-Bis-(anthracen-2-ylcarbonylamino)-5,5-dioxo-5H-5^6-dibenzothiophene-2,8-disulfonic acid, disodium salt] | 0.15 | 38 |  |  | % T/C (Day) ([3]; 50 mg/kg, IP, day 28): 46% |
| O=C(Nc1cc2c(cc1S(=O)(=O)O)-c1cc(S(=O)(=O)O)c(NC(=O)c3ccc4c(c3)C(=O)c3ccccc3C4=O)cc1S2(=O)=O)c1ccc2c(c1)C(=O)c1ccccc1C2=O [Example 55, 3,7-Bis-[9,10-dihydro-9,10-dioxoanthracen-2-yl)carbonyl-amino]-5,5-dioxo-5H-5^6-dibenzothiophene-2,8-disulfonic acid, disodium salt] | 1 | 44 | 74 | 70.5 | % Control ([5]; 1 hr prior to VEGF): 77%; Lesion Area (measured area of vascular permeability) ([5]; 1 hr prior to VEGF): 71.6 mm^2 |
| VEGF |  |  |  |  | Kd (KDR [6]): ~0.1 nM |
